Source: paper PMC7927014, “Novel Small Molecule Hsp90/Cdc37 Interface Inhibitors Indirectly Target K-Ras-Signaling” (Cancers, 2021)

Experiments:
Hsp90/Cdc37 [1] = target: T1, Hsp90/Cdc37 (Homo sapiens, UniProt P07900); assay: Hsp90/Cdc37 split Renilla luciferase assay, full length Hsp90 (cell lysate; IC50 and 20 μM validation); format: biochemical; settings: for normalized RLU / Average RLU: MolPort Screening-3, tested concentration of drugs 20 μM; for normalized RLU: RLU normalized to DMSO (=1.00); for Average RLU: average of 3 wells (DMSO 248028); for IC50: full length Hsp90, split Renilla luciferase assay, cell lysate
T1 construct: The Hsp90/Cdc37 split Renilla luciferase assay using the full length Hsp90 for the compound screening was described previously; expressed in transfected cells; host or cells: HEK293 EBNA cells, cleared lysates
Description: (§1) In the second in silico screening of the FIMM database, we employed the four identified chemical scaffolds (Figure S2B) for the visual inspection of the FIMM compound library. […] All of the purchased compounds were validated in vitro at 20 μM using the split Renilla luciferase assay.
(§2) The Hsp90/Cdc37 split Renilla luciferase assay using the full length Hsp90 for the compound screening was described previously. […] After 48 h, the cells were trypsinized and washed with PBS. The harvested cells were lysed in 1 mL of the 1x lysis buffer provided in the Renilla Luciferase Reporter Assay System Kit from Promega (cat. E2820), and were incubated on ice for 10 min. The cell lysates were then cleared by centrifugation at 13,000× g for 1 min. […] After this, the screening/test compounds or DMSO—as indicated—were added to each well. In total, 5 µL NRL-Hsp90- or NRL-N-Hsp90-lysate was added to each well, one row at a time. Subsequently, the plate was incubated for 5 min at room temperature (RT). […] Just before the reading, 20 µL assay buffer containing 2× Renilla luciferase substrate (coelenterazine) was added. For the FIMM screening, sample wells were read on a PHERAstar plate reader (BMG LABTECH) at a gain level of 4000, after 10 s shaking, using a hypomorph of NRL-Hsp90. For the subsequent validations of the compounds, sample wells with the above-described assay constructs were read using a synergy H1 Hybrid Multi-Mode reader (BioTek) in the luminescence detection mode, as described previously in detail.

Hsp90/Cdc37 [2] = assay: FIMM screening in split Renilla luciferase assay with hypomorphic NRL-Hsp90 construct, 20 μM; format: biochemical; settings: for Average RLU (FIMM Screening-1): DMSO 50019
Description: as §1, §2

MDA-MB-231 cells [3] = assay: 2D cell proliferation (alamarBlue); format: cell-based; settings: Homo sapiens, MDA-MB-231, 72 h
Description: (§3) Per well, 500–700 cells were seeded in 96-well flat bottom culture plates in 100 µL. After 24 h, the cells were treated with 0.1% DMSO vehicle control or test compounds diluted in a medium using a 1:2 dilution-series, starting at 100 µM. The plates were further incubated for 72 h. The cell viability was measured after the addition of 10% alamarBlue reagent per well (cat. no. DAL1100, Thermo Fisher Scientific). The fluorescence intensity (excitation 560 nm and emission 590 nm) was measured after 4 h by the use of a H1 Hybrid Multi-Mode reader.

Hsp90α (N-terminal) = target: T2, Hsp90α (N-terminal) (Homo sapiens, UniProt P07900); assay: Hsp90 N-terminal ATP-binding site competition assay (FITC-geldanamycin fluorescence polarization)
T2 construct: purchased BPS Bioscience 50298
Description: The reaction was initiated by adding 35 ng/μL purified recombinant Hsp90α, and was incubated at RT with slow shaking for 2 h. All of the reactions were performed in a black, low binding NUNC microtiter plate, included in the kit, and the total reaction volume was 50 μL. The enzyme control was measured without the test compound, and the enzyme background control was measured without the test compound or Hsp90α. […] All of the controls and the blank contained 10% DMSO, as did all of the samples of the test compounds. All of the samples were analyzed as duplicates. […] The blank value was subtracted from all of the other values, and the fluorescence polarization was determined as:(1) mP = ((III − I⊥)/(III+ I⊥)) × 1000 where III is the intensity of the parallel, and I┴ the intensity of the perpendicular polarized light.

HCC-44 cells [4] = assay: 2D cell proliferation (alamarBlue); format: cell-based; settings: Homo sapiens, HCC44; HCC-44 (lung, G12C), 72 h
Description: as §3

HEK293 EBNA cells = assay: 2D cell proliferation (alamarBlue); format: cell-based; settings: Homo sapiens, 72 h
Description: as §3

MCF 10A cells = assay: 2D cell proliferation (alamarBlue); format: cell-based; settings: Homo sapiens, 72 h
Description: as §3

MIA PaCa-2 cells [5] = assay: 2D cell proliferation (alamarBlue); format: cell-based; settings: Homo sapiens; MIA PaCa-2 (pancreas), 72 h
Description: as §3

SK-BR-3 cells [6] = assay: 2D cell proliferation (alamarBlue); format: cell-based; settings: Homo sapiens; SK-BR-3 (breast, n.a.), 72 h
Description: as §3

HCC-44 cells [7] = assay: Tumorosphere assay (low adhesion, serum-free 3D spheroid culture); format: cell-based; settings: Homo sapiens, HCC44; HCC-44 (lung, G12C), low attachment, serum-free, 72 h; read-out: 3D spheroid formation IC50
Description: (§4) Per well, 2000 cells were seeded in flat bottom 96-well suspension culture plates (cat. no. 655185, Cellstar, Greiner Bio-One) in 100 µL DMEM or RPMI media containing 1× B27 (cat. no. 17504044, Gibco, Thermo Fisher Scientific), 25 ng/mL EGF (cat. no. E9644, Sigma-Aldrich), and 25 ng/mL FGF (cat. no. RP-8628, Thermo Fisher Scientific), 20% MethoCult H4100 (cat. no. 04100, […] Technologies). After 2 days, 50 µL media containing 0.3% DMSO or 3× the concentration of the indicated compounds were added to the wells in a 1:2 dilution-series, starting at 100 µM. After 72 h of treatment, 10% (v/v) alamarBlue reagent (cat. no. DAL1100, Thermo Fisher Scientific) was added to each well. Then, the fluorescence intensity (excitation 560 nm and emission 590 nm) was measured after 4 h using a H1 Hybrid Multi-Mode reader (BioTek).

MDA-MB-231 cells [8] = assay: as above; format: cell-based; settings: Homo sapiens, MDA-MB-231, 72 h; read-out: 3D spheroid formation IC50
Description: as §4

MIA PaCa-2 cells [9] = assay: as above; format: cell-based; settings: Homo sapiens; MIA PaCa-2 (pancreas), low attachment, serum-free, 72 h; read-out: 3D spheroid formation IC50
Description: as §4

SK-BR-3 cells [10] = assay: as above; format: cell-based; settings: Homo sapiens; SK-BR-3 (breast, n.a.), low attachment, serum-free, 72 h; read-out: 3D spheroid formation IC50
Description: as §4

Row | Compound | normalized RLU (Hsp90/Cdc37 [1]) | Average RLU (Hsp90/Cdc37 [1]) [RLU] | IC50 (Hsp90/Cdc37 [1]) [µM] | normalized RLU (FIMM Screening-1) (Hsp90/Cdc37 [2]; DMSO = 1.00) | normalized RLU (FIMM Screening-2, scaffold based) (Hsp90/Cdc37 [2]; DMSO = 1.00) | Average RLU (FIMM Screening-1) (Hsp90/Cdc37 [2]; mean of 3 wells) [RLU] | Average RLU (FIMM Screening-2, scaffold based) (Hsp90/Cdc37 [2]; mean of 3 wells, DMSO 51006) [RLU] | IC50 (MDA-MB-231 cells [3]) [µM] | competition with FITC-geldanamycin (ATP-pocket binding, polarization signal) (Hsp90α (N-terminal); 20 μM compound) | competition with FITC-geldanamycin (ATP-pocket binding, polarization signal) (Hsp90α (N-terminal); up to 50 μM (12.5, 25, 50 μM)) | IC50 (HCC-44 cells [4]) [µM] | IC50 (HEK293 EBNA cells) [µM] | IC50 (MCF 10A cells) [µM] | IC50 (MIA PaCa-2 cells [5]) [µM] | IC50 (SK-BR-3 cells [6]) [µM] | IC50 (HCC-44 cells [7]) [µM] | IC50 (MDA-MB-231 cells [8]) [µM] | IC50 (MIA PaCa-2 cells [9]) [µM] | IC50 (SK-BR-3 cells [10]) [µM]
1 | C/C1=C\[C@H](C)C[C@H](C)[C@H](Cc2cnco2)OC(=O)/C(C)=C/[C@H](C)C[C@H](C)[C@H](Cc2cnco2)OC1=O [conglobatin A, reference compound] | 0.40 | 98821 | 23 ± 6 | 0.51 | 0.49 | 25349 | 25048 | 32 ± 2 |  |  |  |  |  |  |  |  |  |  | 
2 | CCOc1ccc(C(=O)c2ccc(O)c(O)c2O)cc1 [×1540, 2,3,4-TRIHYDROXY-4'-ETHOXYBENZOPHENONE] |  |  | 44 ± 18 | 0.76 |  | 37962 |  | 29 ± 3 | None of these four compounds displaced | did not do so | 49 ± 6 | 89 | 172 | 23 ± 2 | 36 ± 3 | 52 ± 6 | 58 ± 5 | 53 ± 6 | 64 ± 5
3 | N=C(CSS(=O)(=O)O)NCC12CC3CC(CC(C3)C1)C2 [×6506, [({N-[(adamantan-1-yl)methyl]carbamimidoyl}methyl)sulfanyl]sulfonic acid] | 0.11 | 26657 | 5 ± 1 |  |  |  |  | 32.6 ± 0.5 | None of these four compounds displaced | did not do so | 28 ± 4 | 47 | 64 | 25 ± 2 | 36 ± 4 | 67 ± 5 | 26 ± 1 | 30 ± 3 | 36 ± 4
